Measured values reported in PubChem BioAssay AID330 (DTP/NCI, 2004).
Where “and” joins values, the source holds several entries; their conditions need not be identical. Identical values can stand only once. Inconclusive results and toxic doses are left out.

System: P388 leukemia ip, CD2F1 mice, survival T/C
Experiment: NCI In Vivo Anticancer Drug Screen. Data for tumor model P388 Leukemia (intraperitoneal) in CD2F1 (CDF1) mice
Settings: endpoint: median survival time, higher = longer survival
Outline: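 Mice carrying the transplanted tumor received test compound or vehicle. Survival was recorded in each group, and the value is the treated-group measurement divided by that of the vehicle-treated control group.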

[1] = dose: 60.0 mg/kg/injection, schedule: Q01DX005 (ip), vehicle: Klucel (hydroxypropylcellulose) (HPC)
[2] = dose: 50.0 mg/kg/injection, schedule: Q01DX009 (ip), vehicle: saline
[3] = dose: 100.0 mg/kg/injection, schedule: Q01DX009 (ip), vehicle: saline
[4] = dose: 50.0 mg/kg/injection, schedule: Q01DX005 (ip), vehicle: saline with Tween-80
[5] = dose: 100.0 mg/kg/injection, schedule: Q01DX005 (ip), vehicle: saline with Tween-80
[6] = dose: 200.0 mg/kg/injection, schedule: Q01DX005 (ip), vehicle: saline with Tween-80
[7] = dose: 60.0 mg/kg/injection, schedule: Q01DX005 (ip), vehicle: saline with Tween-80
[8] = dose: 120.0 mg/kg/injection, schedule: Q01DX005 (ip), vehicle: saline with Tween-80
[9] = dose: 240.0 mg/kg/injection, schedule: Q01DX005 (ip), vehicle: saline with Tween-80
[10] = dose: 25.0 mg/kg/injection, schedule: Q04DX003 (ip), vehicle: saline
[11] = dose: 200.0 mg/kg/injection, schedule: Q01DX009 (ip), vehicle: saline
[12] = dose: 50.0 mg/kg/injection, schedule: Q01DX009 (ip), vehicle: saline with Tween-80
[13] = dose: 100.0 mg/kg/injection, schedule: Q01DX009 (ip), vehicle: saline with Tween-80
[14] = dose: 50.0 mg/kg/injection, schedule: Q01DX005 (ip), vehicle: Klucel (hydroxypropylcellulose) (HPC)
[15] = dose: 100.0 mg/kg/injection, schedule: Q01DX005 (ip), vehicle: Klucel (hydroxypropylcellulose) (HPC)
[16] = dose: 200.0 mg/kg/injection, schedule: Q01DX005 (ip), vehicle: Klucel (hydroxypropylcellulose) (HPC)

SMILES: CCOC(=O)NOP(=O)(N1CC1)N1CC1
- T/C (dose: 12.5 mg/kg/injection, schedule: Q01DX001 (ip), vehicle: saline + alcohol): 109 % of control and 124 % of control
- T/C (dose: 25.0 mg/kg/injection, schedule: Q01DX001 (ip), vehicle: saline + alcohol): 111 % of control
- T/C (dose: 100.0 mg/kg/injection, schedule: Q01DX001 (ip), vehicle: saline + alcohol): 238 % of control

SMILES: O=C(c1ccccc1)C(NCc1ccccc1)(Nc1ccccn1)c1ccccc1 (centres undefined)
- T/C (dose: 15.0 mg/kg/injection, schedule: Q01DX005 (ip), vehicle: Klucel (hydroxypropylcellulose) (HPC)): 102 % of control
- T/C (dose: 30.0 mg/kg/injection, schedule: Q01DX005 (ip), vehicle: Klucel (hydroxypropylcellulose) (HPC)): 100 % of control
- T/C [1]: 100 % of control and 88 % of control
- T/C (dose: 240.0 mg/kg/injection, schedule: Q01DX005 (ip), vehicle: Klucel (hydroxypropylcellulose) (HPC)): 89 % of control

SMILES: CN(C)CCC(=O)c1cccc([N+](=O)[O-])c1
- T/C (dose: 12.5 mg/kg/injection, schedule: Q01DX009 (ip), vehicle: saline): 104 % of control
- T/C (dose: 25.0 mg/kg/injection, schedule: Q01DX009 (ip), vehicle: saline): 101 % of control
- T/C [2]: 104 % of control and 109 % of control
- T/C [3]: 98 % of control

SMILES: NC(=O)NN(Cc1cccc(Cl)c1)N=O
- T/C (dose: 100.0 mg/kg/injection, schedule: Q04DX003 (ip), vehicle: Klucel (hydroxypropylcellulose) (HPC)): 95 % of control
- T/C (dose: 200.0 mg/kg/injection, schedule: Q04DX003 (ip), vehicle: Klucel (hydroxypropylcellulose) (HPC)): 94 % of control
- T/C (dose: 400.0 mg/kg/injection, schedule: Q04DX003 (ip), vehicle: Klucel (hydroxypropylcellulose) (HPC)): 98 % of control

SMILES: CCCCCCCCCCCn1nnnc1N
- T/C [4]: 102 % of control
- T/C [5]: 93 % of control
- T/C [6]: 96 % of control

SMILES: CC(C)=CCSC(N)N
- T/C (dose: 7.5 mg/kg/injection, schedule: Q01DX005 (ip), vehicle: saline): 99 % of control
- T/C (dose: 15.0 mg/kg/injection, schedule: Q01DX005 (ip), vehicle: saline): 99 % of control
- T/C (dose: 30.0 mg/kg/injection, schedule: Q01DX005 (ip), vehicle: saline): 99 % of control
- T/C (dose: 60.0 mg/kg/injection, schedule: Q01DX005 (ip), vehicle: saline): 101 % of control

SMILES: CNC(=O)OCc1ccc(NCCN(C)C)c2c(=O)c3cc(OC(=O)NC)ccc3oc12
- T/C (dose: 3.13 mg/kg/injection, schedule: Q01DX005 (ip), vehicle: Klucel (hydroxypropylcellulose) (HPC)): 118 % of control
- T/C (dose: 6.25 mg/kg/injection, schedule: Q01DX005 (ip), vehicle: Klucel (hydroxypropylcellulose) (HPC)): 123 % of control

SMILES: O=C(C[P+](c1ccccc1)(c1ccccc1)c1ccccc1)c1ccccc1
- T/C [7]: 105 % of control
- T/C [8]: 108 % of control
- T/C [9]: 96 % of control

SMILES: COC(=O)c1noc2c1CSc1ccccc1-2
- T/C (dose: 100.0 mg/kg/injection, schedule: Q04DX002 (ip), vehicle: saline with Tween-80): 104 % of control
- T/C (dose: 200.0 mg/kg/injection, schedule: Q04DX002 (ip), vehicle: saline with Tween-80): 99 % of control

SMILES: CCC1NC(C)(C)CC1=C(C)C (centres undefined)
- T/C (dose: 6.25 mg/kg/injection, schedule: Q04DX003 (ip), vehicle: saline): 105 % of control
- T/C (dose: 12.5 mg/kg/injection, schedule: Q04DX003 (ip), vehicle: saline): 110 % of control
- T/C [10]: 110 % of control

SMILES: CC(C)c1cc(/C=C2/OC(=O)c3ccccc32)cc(C(C)C)c1O
- T/C (dose: 100.0 mg/kg/injection, schedule: Q04DX002 (ip), vehicle: saline): 101 % of control
- T/C (dose: 200.0 mg/kg/injection, schedule: Q04DX002 (ip), vehicle: saline): 100 % of control
- T/C (dose: 400.0 mg/kg/injection, schedule: Q04DX002 (ip), vehicle: saline): 106 % of control

SMILES: Cc1nn(-c2ccccc2)c2c1C(=O)CC(C)O2 (centres undefined)
- T/C [1]: 93 % of control
- T/C (dose: 120.0 mg/kg/injection, schedule: Q01DX005 (ip), vehicle: Klucel (hydroxypropylcellulose) (HPC)): 91 % of control

SMILES: O=C1CC(=O)N2C=CC=CC2=N1
- T/C [2]: 101 % of control
- T/C [11]: 91 % of control

SMILES: CNc1nnnn1C
- T/C (dose: 50.0 mg/kg/injection, schedule: Q01DX005 (ip), vehicle: saline): 98 % of control
- T/C (dose: 100.0 mg/kg/injection, schedule: Q01DX005 (ip), vehicle: saline): 98 % of control
- T/C (dose: 200.0 mg/kg/injection, schedule: Q01DX005 (ip), vehicle: saline): 98 % of control

SMILES: C=C1C(=O)OC(CCCCCCCCCCCCCC(C)=O)[C@H]1C(=O)O (some centres undefined)
- T/C (dose: 5.0 mg/kg/injection, schedule: Q01DX005 (ip), vehicle: Klucel (hydroxypropylcellulose) (HPC)): 93 % of control
- T/C (dose: 5.0 mg/kg/injection, schedule: Q01DX005 (ip), vehicle: saline): 93 % of control
- T/C (dose: 10.0 mg/kg/injection, schedule: Q01DX005 (ip), vehicle: Klucel (hydroxypropylcellulose) (HPC)): 90 % of control
- T/C (dose: 10.0 mg/kg/injection, schedule: Q01DX005 (ip), vehicle: saline): 91 % of control
- T/C (dose: 20.0 mg/kg/injection, schedule: Q01DX005 (ip), vehicle: Klucel (hydroxypropylcellulose) (HPC)): 110 % of control and 90 % of control and 107 % of control
- T/C (dose: 20.0 mg/kg/injection, schedule: Q01DX005 (ip), vehicle: saline): 96 % of control
- T/C (dose: 40.0 mg/kg/injection, schedule: Q01DX005 (ip), vehicle: Klucel (hydroxypropylcellulose) (HPC)): 105 % of control and 98 % of control
- T/C (dose: 80.0 mg/kg/injection, schedule: Q01DX005 (ip), vehicle: Klucel (hydroxypropylcellulose) (HPC)): 107 % of control

SMILES: BrC1=CC(Br)=C2N=C(N3CCCC3)N=C3N=C(N4CCCC4)N=C1N32
- T/C (dose: 3.75 mg/kg/injection, schedule: Q01DX005 (ip), vehicle: Klucel + Tween-80): 97 % of control
- T/C (dose: 7.5 mg/kg/injection, schedule: Q01DX005 (ip), vehicle: Klucel + Tween-80): 97 % of control
- T/C (dose: 15.0 mg/kg/injection, schedule: Q01DX005 (ip), vehicle: Klucel + Tween-80): 89 % of control and 90 % of control
- T/C (dose: 60.0 mg/kg/injection, schedule: Q01DX005 (ip), vehicle: Klucel + Tween-80): 86 % of control

SMILES: COP(=O)(OC)/C(=N\NS(=O)(=O)c1ccc(C)cc1)c1ccccc1
- T/C [12]: 100 % of control
- T/C [13]: 103 % of control
- T/C (dose: 200.0 mg/kg/injection, schedule: Q01DX009 (ip), vehicle: saline with Tween-80): 117 % of control
- T/C (dose: 400.0 mg/kg/injection, schedule: Q01DX009 (ip), vehicle: saline with Tween-80): 119 % of control

SMILES: O=S(=O)(O/C(=C(\OS(=O)(=O)C(F)(F)C(F)(F)C(F)(F)C(F)(F)F)c1ccccc1)c1ccccc1)C(F)(F)C(F)(F)C(F)(F)C(F)(F)F
- T/C [7]: 99 % of control
- T/C [8]: 107 % of control
- T/C [9]: 99 % of control

SMILES: O=C1OCC/C1=C1/NC2CCCCC2NC1=O (centres undefined)
- T/C [12]: 94 % of control
- T/C [13]: 94 % of control

SMILES: CCCCn1c2c(c3ccccc3c1=O)C(=O)c1ccccc1-2
- T/C [4]: 92 % of control
- T/C [5]: 91 % of control
- T/C [6]: 88 % of control

SMILES: C=CCC1C/C=C\COC(=O)CC(C)(C)CC1=O (centres undefined)
- T/C [10]: 100 % of control
- T/C (dose: 50.0 mg/kg/injection, schedule: Q04DX003 (ip), vehicle: saline): 102 % of control
- T/C (dose: 100.0 mg/kg/injection, schedule: Q04DX003 (ip), vehicle: saline): 102 % of control
- T/C (dose: 400.0 mg/kg/injection, schedule: Q04DX003 (ip), vehicle: saline): 99 % of control

SMILES: O=C(Cc1cccs1)c1ccc(O)cc1
- T/C [14]: 99 % of control
- T/C [15]: 102 % of control
- T/C [16]: 105 % of control

SMILES: C=C1C[C@]2(C)c3ccccc3NC(=O)[C@H]12
- T/C [14]: 105 % of control
- T/C [15]: 107 % of control
- T/C [16]: 98 % of control

SMILES: C[CH2][Sn]([c]1ccccc1)([c]1ccccc1)[c]1ccccc1
- T/C (dose: 12.5 mg/kg/injection, schedule: Q04DX003 (ip), vehicle: saline with Tween-80): 95 % of control
- T/C (dose: 25.0 mg/kg/injection, schedule: Q04DX003 (ip), vehicle: saline with Tween-80): 100 % of control
- T/C (dose: 50.0 mg/kg/injection, schedule: Q04DX003 (ip), vehicle: saline with Tween-80): 100 % of control

SMILES: CN(CC(=O)N1CCOCC1)Cc1c(Cl)cccc1NC(=O)c1ccccc1
- T/C [2]: 100 % of control
- T/C [3]: 103 % of control
- T/C [11]: 105 % of control

SMILES: CCOC(=O)/C=C(\C)Nc1cccc2c(N/C(C)=C/C(=O)OCC)cccc12
- T/C [4]: 105 % of control
- T/C [5]: 100 % of control
- T/C [6]: 98 % of control
